Results on 30 molecules are retold here after US20090155209A1, “NOVEL MACROCYCLIC INHIBITORS OF HEPATITIS C VIRUS REPLICATION” (priority 2007, published 2009).

In assay [1] the target is T1, NS3-NS4 (Hepatitis C virus genotype 1a, UniProt P27958). Put plainly: NS3-NS4 activity, IC50 (Example 37, Table 8). In kind it is biochemical.
The target of assay [2] is T1, NS3-NS4. Put plainly: cell-based. Conditions: EC50, NS3-NS4 activity.

Some results are limits rather than exact numbers.

T1 sequence (P27958 1027-1657): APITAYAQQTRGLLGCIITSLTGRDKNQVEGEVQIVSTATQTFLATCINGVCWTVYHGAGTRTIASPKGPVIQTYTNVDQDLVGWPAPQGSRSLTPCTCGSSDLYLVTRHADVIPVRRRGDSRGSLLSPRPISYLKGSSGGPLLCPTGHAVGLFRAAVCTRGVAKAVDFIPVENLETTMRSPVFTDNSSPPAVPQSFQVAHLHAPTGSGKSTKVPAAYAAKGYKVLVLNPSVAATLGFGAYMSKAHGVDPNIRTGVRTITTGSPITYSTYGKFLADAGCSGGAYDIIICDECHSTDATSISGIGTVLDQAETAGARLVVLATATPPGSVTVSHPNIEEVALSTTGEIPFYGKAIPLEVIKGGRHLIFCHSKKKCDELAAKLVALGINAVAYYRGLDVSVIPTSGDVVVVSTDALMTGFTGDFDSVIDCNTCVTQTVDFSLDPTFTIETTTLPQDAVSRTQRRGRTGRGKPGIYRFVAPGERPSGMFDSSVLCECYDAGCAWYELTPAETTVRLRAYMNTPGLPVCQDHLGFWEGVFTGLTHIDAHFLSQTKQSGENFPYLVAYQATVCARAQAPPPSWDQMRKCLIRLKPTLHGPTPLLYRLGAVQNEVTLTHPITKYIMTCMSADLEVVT
T1 sequence (P27958 1658-1711): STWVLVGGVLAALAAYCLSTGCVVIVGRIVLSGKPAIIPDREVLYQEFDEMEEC

The term IC50 denotes the midpoint of a concentration-inhibition curve. A higher IC50 goes with weaker potency in that assay. A word on the EC50: it is the concentration needed to bring the measured effect to its halfway point. A lower EC50 goes with a more potent agent. On NS3-NS4 [1], `CC(C)(C)OC(=O)N[C@H]1CCCCC/C=C\[C@@H]2C[C@@]2(C(=O)NS(=O)(=O)c2cc(F)ccc2F)NC(=O)[C@@H]2C[C@@H](OC(=O)N3Cc4cccc(F)c4C3)CN2C1=O` [Compound 307] showed an IC50 below 100 nM. Also, the EC50 at NS3-NS4 [2] was below 100 nM.

At NS3-NS4 [1], `CC(C)(C)OC(=O)N[C@H]1CCCCC/C=C\[C@@H]2C[C@@]2(C(=O)NS(=O)(=O)c2cccc(C(F)(F)F)c2)NC(=O)[C@@H]2C[C@@H](OC(=O)N3Cc4cccc(F)c4C3)CN2C1=O` [Compound 308] displayed an IC50 below 100 nM. The molecule also displayed an EC50 on NS3-NS4 [2] below 100 nM.

As for `CC(C)(C)OC(=O)N[C@H]1CCCCC/C=C\[C@@H]2C[C@@]2(C(=O)NS(=O)(=O)c2cc(F)cc(F)c2)NC(=O)[C@@H]2C[C@@H](OC(=O)N3Cc4cccc(F)c4C3)CN2C1=O` [Compound 309], at NS3-NS4 [1], the IC50 is below 100 nM. This molecule also displayed an EC50 on NS3-NS4 [2] below 100 nM.

The molecule `CC(C)(C)OC(=O)N[C@H]1CCCCC/C=C\[C@@H]2C[C@@]2(C(=O)NS(=O)(=O)c2ccc(F)cc2F)NC(=O)[C@@H]2C[C@@H](OC(=O)N3Cc4cccc(F)c4C3)CN2C1=O` [Compound 310] registered a half-maximal inhibitory concentration (IC50) at NS3-NS4 [1] below 100 nM. The EC50 on NS3-NS4 [2] is below 100 nM.

For `CC(C)(C)OC(=O)N[C@H]1CCCCC/C=C\[C@@H]2C[C@@]2(C(=O)NS(=O)(=O)c2c(Cl)cccc2Cl)NC(=O)[C@@H]2C[C@@H](OC(=O)N3Cc4cccc(F)c4C3)CN2C1=O` [Compound 311], at NS3-NS4 [1], the IC50 is below 100 nM. The molecule further displayed an EC50 on NS3-NS4 [2] of 100 to 1000 nM.

On NS3-NS4 [1], `Cc1ccc(S(=O)(=O)NC(=O)[C@@]23C[C@H]2/C=C\CCCCC[C@H](NC(=O)OC(C)(C)C)C(=O)N2C[C@H](OC(=O)N4Cc5cccc(F)c5C4)C[C@H]2C(=O)N3)cc1Cl` [Compound 312] returned an IC50 below 100 nM. Moreover, the EC50 on NS3-NS4 [2] lay in the range of 100 to 1000 nM.

Take `Cc1ccc(C)c(S(=O)(=O)NC(=O)[C@@]23C[C@H]2/C=C\CCCCC[C@H](NC(=O)OC(C)(C)C)C(=O)N2C[C@H](OC(=O)N4Cc5cccc(F)c5C4)C[C@H]2C(=O)N3)c1` [Compound 313]: the IC50 on NS3-NS4 [1] is below 100 nM. The molecule further registered an EC50 on NS3-NS4 [2] below 100 nM.

On NS3-NS4 [1], `CC(C)(C)OC(=O)N[C@H]1CCCCC/C=C\[C@@H]2C[C@@]2(C(=O)NS(=O)(=O)c2cc(Cl)ccc2F)NC(=O)[C@@H]2C[C@@H](OC(=O)N3Cc4cccc(F)c4C3)CN2C1=O` [Compound 314] came in with an IC50 below 100 nM. Further, the EC50 at NS3-NS4 [2] was below 100 nM.

For `CC(C)(C)OC(=O)N[C@H]1CCCCC/C=C\[C@@H]2C[C@@]2(C(=O)NS(=O)(=O)c2ccc(F)c(F)c2)NC(=O)[C@@H]2C[C@@H](OC(=O)N3Cc4cccc(F)c4C3)CN2C1=O` [Compound 315], at NS3-NS4 [1], the IC50 was below 100 nM. The molecule further displayed an EC50 at NS3-NS4 [2] below 100 nM.

In turn, `CC(C)(C)OC(=O)N[C@H]1CCCCC/C=C\[C@@H]2C[C@@]2(C(=O)NS(=O)(=O)c2cc(Cl)ccc2Cl)NC(=O)[C@@H]2C[C@@H](OC(=O)N3Cc4cccc(F)c4C3)CN2C1=O` [Compound 316] had an IC50 against NS3-NS4 [1] below 100 nM. On NS3-NS4 [2], the EC50 was below 100 nM.

With `Cc1cccc(S(=O)(=O)NC(=O)[C@@]23C[C@H]2/C=C\CCCCC[C@H](NC(=O)OC(C)(C)C)C(=O)N2C[C@H](OC(=O)N4Cc5cccc(F)c5C4)C[C@H]2C(=O)N3)c1` [Compound 317], on NS3-NS4 [1], the IC50 is below 100 nM. Besides, the EC50 on NS3-NS4 [2] was below 100 nM.

`Cc1ccc(S(=O)(=O)NC(=O)[C@@]23C[C@H]2/C=C\CCCCC[C@H](NC(=O)OC(C)(C)C)C(=O)N2C[C@H](OC(=O)N4Cc5cccc(F)c5C4)C[C@H]2C(=O)N3)cc1` [Compound 318] displayed an IC50 on NS3-NS4 [1] below 100 nM. The molecule also had an EC50 on NS3-NS4 [2] below 100 nM.

At NS3-NS4 [1], `CC(C)(C)OC(=O)N[C@H]1CCCCC/C=C\[C@@H]2C[C@@]2(C(=O)NS(=O)(=O)c2cc(Cl)sc2Cl)NC(=O)[C@@H]2C[C@@H](OC(=O)N3Cc4ccccc4C3)CN2C1=O` [Compound 319] had an IC50 below 100 nM. For the same molecule, on NS3-NS4 [2], the EC50 is below 100 nM.

For `CCc1ccc(S(=O)(=O)NC(=O)[C@@]23C[C@H]2/C=C\CCCCC[C@H](NC(=O)OC(C)(C)C)C(=O)N2C[C@H](OC(=O)N4Cc5cccc(F)c5C4)C[C@H]2C(=O)N3)cc1` [Compound 320], at NS3-NS4 [1], the IC50 was below 100 nM. This molecule also returned an EC50 at NS3-NS4 [2] below 100 nM.

Take `Cc1ccccc1S(=O)(=O)NC(=O)[C@@]12C[C@H]1/C=C\CCOCC[C@H](NC(=O)OC(C)(C)C)C(=O)N1C[C@H](OC(=O)N3Cc4cccc(Cl)c4C3)C[C@H]1C(=O)N2` [Compound 321, (2R,6S,13aS,14aR,16aSZ)-6-(tert-butoxycarbonylamino)-5,16-dioxo-14a-(o-tolylsulfonylcarbamoyl)-2,3,5,6,7,8,10,11,13a,14,14a,15,16,16a-tetradecahydro-1H-cyclopropa[j]pyrrolo[1,2-f][1,6,9]oxadiazacyclopentadecin-2-yl 4-chloroisoindoline-2-carboxylate]: the IC50 against NS3-NS4 [1] is below 100 nM. The molecule further showed an EC50 on NS3-NS4 [2] below 100 nM.

On NS3-NS4 [1], `CC(C)(C)OC(=O)N[C@H]1CCOCC/C=C\[C@@H]2C[C@@]2(C(=O)NS(=O)(=O)c2cc(Cl)sc2Cl)NC(=O)[C@@H]2C[C@@H](OC(=O)N3Cc4cccc(Cl)c4C3)CN2C1=O` [Compound 322, (2R,6S,13aS,14aR,16aS,Z)-6-(tert-butoxycarbonylamino)-14a-(2,5-dichlorothiophen-3-ylsulfonylcarbamoyl)-5,16-dioxo-2,3,5,6,7,8,10,11,13a,14,14a,15,16,16a-tetradecahydro-1H-cyclopropa[j]pyrrolo[1,2-f][1,6,9]oxadiazacyclopentadecin-2-yl 4-chloroisoindoline-2-carboxylate] registered an IC50 below 100 nM. The molecule also gave an EC50 on NS3-NS4 [2] below 100 nM.

On NS3-NS4 [1], `CC(C)(C)OC(=O)N[C@H]1CCOCC/C=C\[C@@H]2C[C@@]2(C(=O)NS(=O)(=O)c2ccc(Cl)cc2)NC(=O)[C@@H]2C[C@@H](OC(=O)N3Cc4cccc(Cl)c4C3)CN2C1=O` [Compound 324, (2R,6S,13aS,14aR,16aSZ)-6-(tert-butoxycarbonylamino)-14a-(4-chlorophenylsulfonylcarbamoyl)-5,16-dioxo-2,3,5,6,7,8,10,11,13a,14,14a,15,16,16a-tetradecahydro-1H-cyclopropa[j]pyrrolo[1,2-f][1,6,9]oxadiazacyclopentadecin-2-yl 4-chloroisoindoline-2-carboxylate] yielded an IC50 below 100 nM. For the same molecule, the EC50 on NS3-NS4 [2] was below 100 nM.

For the molecule `CCC(C)(C)OC(=O)N[C@H]1CCOCC/C=C\[C@@H]2C[C@@]2(C(=O)NS(=O)(=O)c2ccc(Cl)cc2)NC(=O)[C@@H]2C[C@@H](OC(=O)N3Cc4cccc(Cl)c4C3)CN2C1=O` [Compound 325, (2R,6S,13aS,14aR,16aS,Z)-14a-(4-chlorophenylsulfonylcarbamoyl)-5,16-dioxo-6-(tert-pentyloxycarbonylamino)-2,3,5,6,7,8,10,11,13a,14,14a,15,16,16a-tetradecahydro-1H-cyclopropa[j]pyrrolo[1,2-f][1,6,9]oxadiazacyclopentadecin-2-yl 4-chloroisoindoline-2-carboxylate], on NS3-NS4 [1], the IC50 was below 100 nM. This molecule also displayed an EC50 at NS3-NS4 [2] below 100 nM.

Turning to `CC(C)(C)OC(=O)N[C@H]1CCCCC/C=C\[C@@H]2C[C@@]2(C(=O)NS(=O)(=O)c2ccccc2Cl)NC(=O)[C@@H]2C[C@@H](OC(=O)N3Cc4cccc(F)c4C3)CN2C1=O` [Compound 332], the IC50 against NS3-NS4 [1] is below 100 nM. The molecule further showed a concentration giving a half-maximal response (EC50) at NS3-NS4 [2] below 100 nM.

Molecule `CC(C)(C)OC(=O)N[C@H]1CCCCC/C=C\[C@@H]2C[C@@]2(C(=O)NS(=O)(=O)c2ccc(Cl)cc2)NC(=O)[C@@H]2C[C@@H](OC(=O)N3Cc4cccc(F)c4C3)CN2C1=O` [Compound 333] yielded an IC50 against NS3-NS4 [1] below 100 nM. The molecule also showed an EC50 at NS3-NS4 [2] below 100 nM.

Take `O=C(N[C@H]1CCCCC/C=C\[C@@H]2C[C@@]2(C(=O)NS(=O)(=O)c2ccc(Cl)cc2)NC(=O)[C@@H]2C[C@@H](OC(=O)N3Cc4cccc(F)c4C3)CN2C1=O)OC1CCOC1` (stereo partly drawn) [Compound 334]: the IC50 at NS3-NS4 [1] is below 100 nM. For the same molecule, at NS3-NS4 [2], the EC50 was below 100 nM.

In the case of `O=C(N[C@H]1CCCCC/C=C\[C@@H]2C[C@@]2(C(=O)NS(=O)(=O)c2ccc(Cl)cc2)NC(=O)[C@@H]2C[C@@H](OC(=O)N3Cc4cccc(Cl)c4C3)CN2C1=O)OC1CCOCC1` [Compound 335], the IC50 at NS3-NS4 [1] was below 100 nM. The same molecule gave an EC50 at NS3-NS4 [2] of 100 to 1000 nM.

As for `CCC(C)(C)OC(=O)N[C@H]1CCCCC/C=C\[C@@H]2C[C@@]2(C(=O)NS(=O)(=O)c2ccc(Cl)cc2)NC(=O)[C@@H]2C[C@@H](OC(=O)N3Cc4cccc(F)c4C3)CN2C1=O` [Compound 336], the IC50 on NS3-NS4 [1] is below 100 nM. At NS3-NS4 [2], this molecule displayed an EC50 below 100 nM.

For the molecule `CCC(C)(C)OC(=O)N[C@H]1CCCCC/C=C\[C@@H]2C[C@@]2(C(=O)NS(=O)(=O)c2ccccc2C)NC(=O)[C@@H]2C[C@@H](OC(=O)N3Cc4cccc(F)c4C3)CN2C1=O` [Compound 337], the IC50 against NS3-NS4 [1] is below 100 nM. On NS3-NS4 [2], this molecule showed an EC50 below 100 nM.

On NS3-NS4 [1], `Cc1ccccc1S(=O)(=O)NC(=O)[C@@]12C[C@H]1/C=C\CCCCC[C@H](NC(=O)OC1CCC1)C(=O)N1C[C@H](OC(=O)N3Cc4cccc(F)c4C3)C[C@H]1C(=O)N2` [Compound 338] showed an IC50 below 100 nM. For the same molecule, the EC50 on NS3-NS4 [2] was below 100 nM.

At NS3-NS4 [1], `O=C(N[C@H]1CCCCC/C=C\[C@@H]2C[C@@]2(C(=O)NS(=O)(=O)c2ccc(Cl)cc2)NC(=O)[C@@H]2C[C@@H](OC(=O)N3Cc4cccc(F)c4C3)CN2C1=O)OC1CCC1` [Compound 339] displayed an IC50 below 100 nM. For the same molecule, the EC50 on NS3-NS4 [2] is below 100 nM.

Molecule `CC(C)(C)COC(=O)N[C@H]1CCCCC/C=C\[C@@H]2C[C@@]2(C(=O)NS(=O)(=O)c2ccc(Cl)cc2)NC(=O)[C@@H]2C[C@@H](OC(=O)N3Cc4cccc(F)c4C3)CN2C1=O` [Compound 340] registered an IC50 on NS3-NS4 [1] below 100 nM. At NS3-NS4 [2], the EC50 was below 100 nM.

Turning to `CC(C)COC(=O)N[C@H]1CCCCC/C=C\[C@@H]2C[C@@]2(C(=O)NS(=O)(=O)c2ccc(Cl)cc2)NC(=O)[C@@H]2C[C@@H](OC(=O)N3Cc4cccc(F)c4C3)CN2C1=O` [Compound 341], the IC50 against NS3-NS4 [1] was below 100 nM. On NS3-NS4 [2], this molecule had an EC50 below 100 nM.

In turn, `CC(C)COC(=O)N[C@H]1CCCCC/C=C\[C@@H]2C[C@@]2(C(=O)NS(=O)(=O)c2cc(Cl)sc2Cl)NC(=O)[C@@H]2C[C@@H](OC(=O)N3Cc4cccc(F)c4C3)CN2C1=O` [Compound 342] gave an IC50 against NS3-NS4 [1] below 100 nM. The molecule also registered an EC50 on NS3-NS4 [2] below 100 nM.

Take `CC(C)(C)COC(=O)N[C@H]1CCCCC/C=C\[C@@H]2C[C@@]2(C(=O)NS(=O)(=O)c2cc(Cl)sc2Cl)NC(=O)[C@@H]2C[C@@H](OC(=O)N3Cc4cccc(F)c4C3)CN2C1=O` [Compound 343]: the IC50 against NS3-NS4 [1] was below 100 nM. Also, on NS3-NS4 [2], the EC50 was below 100 nM.
